# Marks after values point to notes of the source that are not given here.
# Assays:
# [1] = Incubation with heat-inactivated human liver microsomes (stability control); settings: 60 min
# Procedure: (§1) The test articles were incubated at two concentrations (1 and 10 μM) in 96-well plate format with active or heat-inactivated human liver microsomes and cofactors. Aliquots were removed at 0, 15, 30 and 60 minutes and mixed with acetonitrile containing internal standard for analysis. Samples were extracted and assayed using a liquid chromatography/tandem mass spectrometry (LC-MS/MS) analytical method.
# (§2) The test articles (1 and 10 μM) were incubated with human liver microsomes (0.5 mg protein/ml) and appropriate cofactors (2.5 mM NADPH and 3.3 mM magnesium chloride) in 100 mM phosphate buffer, pH 7.4 (0.1% final DMSO), in a 37° C. water bath. Incubations with all compounds were initiated with the addition of microsomes. At selected time points (0, 15, 30 and 60 min), a single 100 μl aliquot was removed from each sample and mixed with 200 μl of chilled acetonitrile containing internal standard. Following brief vortexing and centrifugation, the samples were further diluted into a 96-well plate for subsequent LC-MS/MS analysis. All samples were assayed in duplicate.
# (§3) Experimental controls consisted of: a) incubation of all components except test article for 0 and 60 min, b) incubation of midazolam (positive control) at 10 μM for 0, 15, 30 and 60 min, and c) incubation of 1 and 10 μM test article and 10 μM midazolam with heat-inactivated microsomes (0.5 mg protein/ml) for 0 and 60 min. All controls were assayed in duplicate.
# (§4) Data from the metabolic stability assays were transferred to and processed in a Microsoft Excel spreadsheet. To determine metabolic stability, the percent remaining at each time point was calculated by dividing the peak area ratio of test article/internal standard at each time point by the peak area ratio at 0 min multiplied by 100.
# [2] = In vitro metabolic stability using human liver microsomes; settings: for % remaining: at both 1 and 10 μM
# Procedure: The metabolic stability of 15 GABAA receptor ligands using human liver microsomes was studied. The test articles were incubated at two concentrations (1 and 10 μM) and aliquots (100 μl) were removed at various time points (0, 15, 30 and 60 minutes), and analyzed by LC-MS/MS.
# as §1
# Pooled human liver microsomes (Lot #38289, pool of 150 different male and female donor livers) were obtained from BD Biosciences Corporation (Woburn, Mass.). Microsomes were stored at ˜−135° C. until use.
# as §2, §3
# Samples were analyzed by LC-MS/MS in multiple reaction monitoring mode using positive-ion electrospray ionization. The details of the LC-MS/MS method can be provided upon request.
# as §4
SMILES,melting point,"Mean % Remaining vs T = 0 min, with HI (Heat Inactivated) Microsomes ([1]; 1 μM)","Mean % Remaining vs T = 0 min, with HI (Heat Inactivated) Microsomes ([1]; 10 μM)","Mean % Remaining vs T = 0 min, Human Liver Microsomes ([2]; 1 μM, 15 min)","Mean % Remaining vs T = 0 min, Human Liver Microsomes ([2]; 1 μM, 30 min)","Mean % Remaining vs T = 0 min, Human Liver Microsomes ([2]; 10 μM, 15 min)","Mean % Remaining vs T = 0 min, Human Liver Microsomes ([2]; 10 μM, 30 min)","Mean % Remaining vs T = 0 min, Human Liver Microsomes ([2]; 10 μM, 60 min)","Mean % Remaining vs T = 0 min, Human Liver Microsomes ([2]; 1 μM, 60 min)",other results
O=C(OCCCCOC(=O)c1ncn2c1[C@@H]1CCCN1C(=O)c1cc(Br)ccc1-2)c1ncn2c1C1CCCN1C(=O)c1cc(Br)ccc1-2 (stereo partly shown),166 to 171 °C,–,–,–,–,–,–,–,–,–
O=C(OCCCCCOC(=O)c1ncn2c1[C@@H]1CCCN1C(=O)c1cc(Br)ccc1-2)c1ncn2c1C1CCCN1C(=O)c1cc(Br)ccc1-2 (stereo partly shown),157 to 161 °C,–,–,–,–,–,–,–,–,–
C#Cc1ccc2c(c1)C(c1ccccc1)=NCc1c(C(=O)OCCCOC(=O)c3ncn4c3CN(C)C(=O)c3cc(Cl)ccc3-4)ncn1-2,179 to 184 °C,141%,114%,87.3%,39.4%,107%,104%,82.8%,–,–
C#Cc1ccc2c(c1)C(=O)N1CCCC1c1c(C(=O)OCCCOC(=O)c3ncn4c3CN(C)C(=O)c3cc(Cl)ccc3-4)ncn1-2 (stereo not shown),174 to 176 °C,–,–,–,–,–,–,–,–,–
C#Cc1ccc2c(c1)C(=O)N1CCCC1c1c(C(=O)N3CCN(C(=O)c4ncn5c4[C@@H]4CCCN4C(=O)c4cc(C#C)ccc4-5)CC3)ncn1-2 (stereo partly shown),206 to 211 °C,–,–,–,–,–,–,–,–,–
C#Cc1ccc2c(c1)C(c1ccccc1)=NCc1c(C(=O)NC)ncn1-2,237 to 238 °C,–,–,–,–,–,–,–,–,–
C#Cc1ccc2c(c1)C(c1ccccc1F)=N[C@@H](C)c1c(C(=O)OCCCCCOC(=O)c3ncn4c3CN(C)C(=O)c3cc(Cl)ccc3-4)ncn1-2,157 to 162 °C (dec.),–,–,–,–,–,–,–,–,–
C#Cc1ccc2c(c1)C(c1ccccc1F)=N[C@@H](C)c1c(C(=O)OCCCCOC(=O)c3ncn4c3[C@H](C)N=C(c3ccccc3F)c3cc(C#C)ccc3-4)ncn1-2,158 to 160 °C,–,–,–,–,–,–,–,–,–
C#Cc1ccc2c(c1)C(c1ccccc1F)=N[C@@H](C)c1c(C(=O)OCCCCCOC(=O)c3ncn4c3[C@H](C)N=C(c3ccccc3F)c3cc(C#C)ccc3-4)ncn1-2,150 to 155 °C,–,–,–,–,–,–,–,–,–
C#Cc1ccc2c(c1)C(c1ccccc1F)=N[C@@H](C)c1c(C(=O)N3CCN(C(=O)c4ncn5c4[C@H](C)N=C(c4ccccc4F)c4cc(C#C)ccc4-5)CC3)ncn1-2,180 to 190 °C,–,–,–,–,–,–,–,–,–
C#Cc1ccc2c(c1)C(c1ccccc1)=NCc1c(C(=O)OCCCCCOC(=O)c3ncn4c3CN(C)C(=O)c3cc(Cl)ccc3-4)ncn1-2,155 to 160 °C (dec.),–,–,–,–,–,–,–,–,–
C#Cc1ccc2c(c1)C(c1ccccc1F)=NCc1c(C(=O)OCCCCCOC(=O)c3ncn4c3CN(C)C(=O)c3cc(Cl)ccc3-4)ncn1-2,125 to 130 °C,–,–,–,–,–,–,–,–,–
C#Cc1ccc2c(c1)C(c1ccccc1)=NCc1c(C(=O)OCCCCCOC(=O)c3ncn4c3CN=C(c3ccccc3F)c3cc(C#C)ccc3-4)ncn1-2,145 to 150 °C,–,–,–,–,–,–,–,–,–
CN1Cc2c(C(=O)OCCCCOC(=O)c3ncn4c3CN(C)C(=O)c3cc(Cl)ccc3-4)ncn2-c2ccc(Cl)cc2C1=O,308 to 312 °C,–,–,–,–,–,–,–,–,–
CN1Cc2c(C(=O)OCCCCCOC(=O)c3ncn4c3CN(C)C(=O)c3cc(Cl)ccc3-4)ncn2-c2ccc(Cl)cc2C1=O,146 to 152 °C,–,–,–,–,–,–,–,–,–
CN1Cc2c(C(=O)N3CCN(C(=O)c4ncn5c4CN(C)C(=O)c4cc(Cl)ccc4-5)CC3)ncn2-c2ccc(Cl)cc2C1=O,367 to 374 °C,–,–,–,–,–,–,–,–,–
C#Cc1ccc2c(c1)C(c1ccccn1)=NCc1c(C(=O)OCC)ncn1-2 [HZ-166],–,94.1%,95.4%,106%,98.4%,104%,90.7%,76.3%,80.4%,–
C#Cc1ccc2c(c1)C(c1ccccc1F)=NCc1c(C(=O)OCC)ncn1-2 [JY-XHe-053],–,102%,111%,13.5%,2.13%,20.0%,3.60%,0.56%,0.27%,% remaining ([2]; 15 min): less than 20%
Cc1ncc2n1-c1ccc(Cl)cc1C(c1ccccc1F)=NC2 [Midazolam],–,–,–,–,–,–,–,–,–,"Mean % Remaining vs T = 0 min, with HI (Heat Inactivated) Microsomes ([1]; 10 μM, positive control, data from three experiments): 104 ± 1.2%; Mean % Remaining vs T = 0 min, Human Liver Microsomes ([2]; 10 μM, 15 min, positive control, data from three experiments): 36.9 ± 13.5%; Mean % Remaining vs T = 0 min, Human Liver Microsomes ([2]; 10 μM, 30 min, positive control, data from three experiments): 18.7 ± 7.3%; Mean % Remaining vs T = 0 min, Human Liver Microsomes ([2]; 10 μM, 60 min, positive control, data from three experiments): 4.2 ± 2.2%; metabolism observed (in words) ([2]; active human liver microsomes, up to 60 min): consistently metabolized"
C#Cc1ccc2c(c1)C(c1ccccc1F)=N[C@H](C)c1c(C(=O)OCC)ncn1-2 [SH-053-2′F-RCH3],–,115%,117%,86.7%,86.7%,97.9%,105%,105%,86.9%,–
C#Cc1ccc2c(c1)C(c1ccccc1F)=N[C@@H](C)c1c(C(=O)OCC)ncn1-2 [SH-053-2′F-SCH3],–,110%,114%,6.18%,0.85%,11.7%,1.72%,0.20%,3.85^d %,% remaining ([2]; 15 min): less than 12%
C#Cc1ccc2c(c1)C(c1ccccc1)=NCc1c(C(=O)O)ncn1-2 [XHe-II-053 Acid],–,106%,97.4%,108%,106%,95.6%,95.0%,95.0%,111%,–
C#Cc1ccc2c(c1)C(c1ccccc1)=NCc1c(C(=O)OCC)ncn1-2 [XHe-II-053],–,107%,102%,41.4%,11.1%,47.6%,13.9%,1.74%,1.46%,–
"C#Cc1ccc2c(c1)C(c1ccccn1)=NCc1c(-c3nc(C(C)C)no3)ncn1-2 [ZJW-II-040, 5-(8-Ethynyl-6-(pyridin-2-yl)-4H-Benzo-[f]-Imidazo-[1,5-a]-[1,4]-Diazepine-3-yl)-3-Isopropyl-1,2,4-Oxadiazole]",–,113%,92.0%,97.8%,98.7%,106%,99.3%,95.1%,89.4%,–
"C#Cc1ccc2c(c1)C(c1ccccn1)=NCc1c(C(=O)SC)ncn1-2 [ZJW-II-065, S-Methyl-8-Ethynyl-Methyl-6-(Pyridine-2-yl)-4H-Benzo-[f]-Imidazo-[1,5-a]-[1,4]-Diazepine-3-Carbothioate]",–,105%,110%,98.4%,97.0%,111%,106%,95.6%,82.5%,–

# — patent US9597342B2 (UWM Research Foundation, Inc., priority 2011, dated 2017)
